Source: US20070276025A1, “Indirubin-Type Compounds, Compositions, and Methods for Their Use” (priority 2003, published 2007)
pEC50, pIC50: −log10 of the molar value.

Legend:
AhR = AhR (Homo sapiens, UniProt P35869)
protein kinase C ζ = target: T1, protein kinase C ζ (Homo sapiens, UniProt Q05513); parameters: made in house; settings: Table 2, data from Hoessel et al. (1999); cited from earlier work
T1 sequence (Q05513 1-592): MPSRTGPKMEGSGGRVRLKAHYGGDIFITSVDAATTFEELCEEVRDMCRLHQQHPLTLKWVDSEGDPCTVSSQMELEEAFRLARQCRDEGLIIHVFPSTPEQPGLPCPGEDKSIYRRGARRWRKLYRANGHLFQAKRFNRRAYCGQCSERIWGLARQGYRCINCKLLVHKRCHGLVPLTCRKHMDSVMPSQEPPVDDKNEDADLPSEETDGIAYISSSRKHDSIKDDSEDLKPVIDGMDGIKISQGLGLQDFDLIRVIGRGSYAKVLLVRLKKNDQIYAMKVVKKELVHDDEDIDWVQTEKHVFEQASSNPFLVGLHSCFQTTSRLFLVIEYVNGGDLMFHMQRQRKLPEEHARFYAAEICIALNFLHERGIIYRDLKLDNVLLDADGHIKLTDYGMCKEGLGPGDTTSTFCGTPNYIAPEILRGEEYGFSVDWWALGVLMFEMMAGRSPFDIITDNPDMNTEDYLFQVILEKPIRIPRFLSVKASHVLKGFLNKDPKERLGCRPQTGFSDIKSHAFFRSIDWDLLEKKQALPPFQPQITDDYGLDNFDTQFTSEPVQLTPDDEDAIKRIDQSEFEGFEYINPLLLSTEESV

protein kinase C ε = target: T2, protein kinase C ε (Homo sapiens, UniProt Q02156); parameters: made in house; settings: Table 2, data from Hoessel et al. (1999); cited from earlier work
T2 sequence (Q02156 1-737): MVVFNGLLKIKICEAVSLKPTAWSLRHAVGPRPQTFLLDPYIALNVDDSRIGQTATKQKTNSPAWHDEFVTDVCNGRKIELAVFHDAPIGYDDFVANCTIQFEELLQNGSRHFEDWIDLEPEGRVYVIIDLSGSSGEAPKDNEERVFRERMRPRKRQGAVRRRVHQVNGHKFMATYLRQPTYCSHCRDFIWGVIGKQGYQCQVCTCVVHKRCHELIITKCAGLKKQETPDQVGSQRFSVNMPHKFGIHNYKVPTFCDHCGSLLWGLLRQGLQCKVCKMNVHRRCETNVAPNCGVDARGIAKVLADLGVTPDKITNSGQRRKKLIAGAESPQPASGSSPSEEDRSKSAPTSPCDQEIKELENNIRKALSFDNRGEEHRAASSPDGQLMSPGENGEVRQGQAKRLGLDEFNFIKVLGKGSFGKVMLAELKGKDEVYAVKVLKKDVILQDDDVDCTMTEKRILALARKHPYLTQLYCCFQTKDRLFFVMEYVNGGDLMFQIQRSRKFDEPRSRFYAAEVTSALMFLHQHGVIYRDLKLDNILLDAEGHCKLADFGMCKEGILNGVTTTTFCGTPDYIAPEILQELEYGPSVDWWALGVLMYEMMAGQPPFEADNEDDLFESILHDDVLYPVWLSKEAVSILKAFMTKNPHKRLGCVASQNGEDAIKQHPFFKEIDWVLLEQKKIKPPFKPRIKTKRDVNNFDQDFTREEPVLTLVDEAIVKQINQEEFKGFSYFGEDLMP

[1] = system: p27^KIP1 in 5L (AhR +/+) cells; assay: p27KIP1 expression by Western blotting, 5L cells; type: cell-based, mouse
CDK2/cyclin A = CDK2/cyclin A (Homo sapiens, UniProt P24941); parameters: made in house; settings: Hoessel et al. (1999); read-out: IC50 CDK2/cyclinA; cited from earlier work
[2] = system: GSK-3α (Tyr276) / GSK-3β (Tyr216); assay: Tyrosine phosphorylation of GSK-3 in SH-SY5Y cells (Western blot); type: cell-based, human; settings: 1 μM, 12 hr
Description: GSK-3α and GSK-3β activity is enhanced by the phosphorylation of a specific tyrosine residue (Tyr276 and Tyr216, respectively) (Hughes et al. (1993) EMBO J. 12: 803-808; Dajani et al. (2003) EMBO J. 22: 494-501). The tyrosine kinase responsible for this phosphorylation in mammals is unknown, but there is some evidence that it indirectly depends on GSK-3 activity (Bhat et al. (2000) Proc. Natl. Acad. Sci. U.S.A. 97: 11074-11079; Shaw et al. (1997) FEBS Lett. 416: 307-311). […] SH-SY5Y cells were exposed to IO, MeIO, BIO and MeBIO for 12 hr and the phosphorylation of Tyr276 (GSK-3α) and Tyr216 (GSK-3β) was estimated by Western blotting with phospho-specific antibodies. […] This was accompanied by an increased level in total GSK-3β, total β-catenin, and dephospho-&catenin.

CDK4/cyclin D1 = CDK4/cyclin D1 (Homo sapiens, UniProt P11802); parameters: made in house; settings: Table 2, data from Hoessel et al. (1999); cited from earlier work
Chain of CDK4/cyclin D1 (P11802 whole entry, species assumed): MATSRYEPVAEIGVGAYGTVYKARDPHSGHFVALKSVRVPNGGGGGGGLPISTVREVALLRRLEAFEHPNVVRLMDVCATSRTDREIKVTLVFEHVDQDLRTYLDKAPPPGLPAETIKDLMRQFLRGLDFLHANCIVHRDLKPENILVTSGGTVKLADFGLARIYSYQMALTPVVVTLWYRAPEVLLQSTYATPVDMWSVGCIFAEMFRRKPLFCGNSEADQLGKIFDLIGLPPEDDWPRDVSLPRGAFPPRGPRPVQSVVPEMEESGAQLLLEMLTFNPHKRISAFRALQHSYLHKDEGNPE
Chain of CDK4/cyclin D1 (P24385 whole entry partner, species assumed): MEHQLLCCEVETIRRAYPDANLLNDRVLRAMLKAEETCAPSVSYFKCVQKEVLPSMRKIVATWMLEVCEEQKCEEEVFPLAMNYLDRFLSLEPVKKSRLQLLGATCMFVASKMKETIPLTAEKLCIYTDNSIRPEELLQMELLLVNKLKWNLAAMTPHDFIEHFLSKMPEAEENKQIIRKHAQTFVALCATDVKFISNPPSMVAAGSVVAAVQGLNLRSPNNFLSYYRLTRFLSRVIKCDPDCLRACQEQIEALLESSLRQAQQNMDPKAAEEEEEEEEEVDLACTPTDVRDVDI

casein kinase 2 = settings: Table 2, data from Hoessel et al. (1999); cited from earlier work
erk1 = erk1 (Homo sapiens, UniProt P27361); parameters: made in house; settings: Table 2, data from Hoessel et al. (1999); cited from earlier work
Chain of erk1 (P27361 whole entry, species assumed): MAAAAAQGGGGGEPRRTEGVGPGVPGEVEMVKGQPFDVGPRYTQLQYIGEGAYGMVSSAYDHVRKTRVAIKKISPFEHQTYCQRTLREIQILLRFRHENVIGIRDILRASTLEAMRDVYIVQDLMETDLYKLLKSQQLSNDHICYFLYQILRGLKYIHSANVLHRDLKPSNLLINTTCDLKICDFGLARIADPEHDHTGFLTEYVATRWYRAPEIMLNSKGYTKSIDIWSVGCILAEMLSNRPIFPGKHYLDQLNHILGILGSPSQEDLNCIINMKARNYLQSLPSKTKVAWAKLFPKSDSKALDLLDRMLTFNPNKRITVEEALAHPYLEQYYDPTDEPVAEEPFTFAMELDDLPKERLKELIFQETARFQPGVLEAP

cGMP-dependent PK = settings: Table 2, data from Hoessel et al. (1999); cited from earlier work
protein kinase C γ = protein kinase C γ (Homo sapiens, UniProt P05129); parameters: made in house; settings: Table 2, data from Hoessel et al. (1999); cited from earlier work
[3] = system: BP8 (AhR −/−) hepatoma cells; assay: Cell viability MTT assay, BP8 cells; type: cell-based, mouse; settings: range of concentrations, 24 and 48 hr
cAMP-dependent PK = settings: Table 2, data from Hoessel et al. (1999); cited from earlier work
protein kinase C δ = protein kinase C δ (Homo sapiens, UniProt Q05655); parameters: made in house; settings: Table 2, data from Hoessel et al. (1999); cited from earlier work
Chain of protein kinase C δ (Q05655 whole entry): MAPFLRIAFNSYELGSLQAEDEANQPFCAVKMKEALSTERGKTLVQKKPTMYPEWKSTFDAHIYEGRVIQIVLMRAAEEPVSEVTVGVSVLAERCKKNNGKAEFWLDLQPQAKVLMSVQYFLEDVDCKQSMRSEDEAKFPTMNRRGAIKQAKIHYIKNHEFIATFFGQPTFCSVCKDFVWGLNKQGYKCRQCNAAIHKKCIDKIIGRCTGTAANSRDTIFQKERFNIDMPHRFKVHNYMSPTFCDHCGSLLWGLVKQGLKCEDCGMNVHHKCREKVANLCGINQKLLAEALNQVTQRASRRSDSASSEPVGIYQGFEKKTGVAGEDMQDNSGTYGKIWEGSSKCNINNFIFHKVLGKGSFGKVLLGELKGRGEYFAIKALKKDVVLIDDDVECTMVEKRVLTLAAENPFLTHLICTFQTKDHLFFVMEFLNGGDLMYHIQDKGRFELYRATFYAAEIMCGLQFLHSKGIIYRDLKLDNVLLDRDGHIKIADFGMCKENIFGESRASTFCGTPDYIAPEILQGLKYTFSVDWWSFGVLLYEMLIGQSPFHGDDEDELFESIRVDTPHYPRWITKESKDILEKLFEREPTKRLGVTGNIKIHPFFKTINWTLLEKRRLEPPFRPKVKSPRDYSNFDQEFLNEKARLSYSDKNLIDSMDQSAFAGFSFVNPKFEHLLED

Chain of AhR (P35869 11-848): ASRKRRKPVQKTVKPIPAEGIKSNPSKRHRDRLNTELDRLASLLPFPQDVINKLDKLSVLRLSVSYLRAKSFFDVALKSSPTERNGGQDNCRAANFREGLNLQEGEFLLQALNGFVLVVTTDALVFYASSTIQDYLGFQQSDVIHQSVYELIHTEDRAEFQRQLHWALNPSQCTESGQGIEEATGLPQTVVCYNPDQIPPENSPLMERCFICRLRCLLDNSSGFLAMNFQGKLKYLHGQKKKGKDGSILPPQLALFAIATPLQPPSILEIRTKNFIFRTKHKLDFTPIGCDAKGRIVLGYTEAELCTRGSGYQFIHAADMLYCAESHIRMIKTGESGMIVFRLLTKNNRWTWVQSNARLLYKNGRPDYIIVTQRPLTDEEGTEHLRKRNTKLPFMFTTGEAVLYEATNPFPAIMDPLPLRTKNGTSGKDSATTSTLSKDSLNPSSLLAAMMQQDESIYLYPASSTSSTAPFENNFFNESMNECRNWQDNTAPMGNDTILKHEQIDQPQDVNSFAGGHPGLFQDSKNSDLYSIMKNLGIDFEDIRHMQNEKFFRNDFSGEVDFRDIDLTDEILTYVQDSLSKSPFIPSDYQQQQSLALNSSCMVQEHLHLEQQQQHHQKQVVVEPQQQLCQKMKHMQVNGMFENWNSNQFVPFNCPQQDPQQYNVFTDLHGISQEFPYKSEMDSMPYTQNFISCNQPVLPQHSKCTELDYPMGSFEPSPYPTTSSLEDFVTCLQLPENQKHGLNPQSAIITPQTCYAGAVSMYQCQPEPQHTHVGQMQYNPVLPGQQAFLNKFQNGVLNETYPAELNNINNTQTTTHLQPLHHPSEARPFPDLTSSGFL
Chain of AhR (P27540 whole entry partner): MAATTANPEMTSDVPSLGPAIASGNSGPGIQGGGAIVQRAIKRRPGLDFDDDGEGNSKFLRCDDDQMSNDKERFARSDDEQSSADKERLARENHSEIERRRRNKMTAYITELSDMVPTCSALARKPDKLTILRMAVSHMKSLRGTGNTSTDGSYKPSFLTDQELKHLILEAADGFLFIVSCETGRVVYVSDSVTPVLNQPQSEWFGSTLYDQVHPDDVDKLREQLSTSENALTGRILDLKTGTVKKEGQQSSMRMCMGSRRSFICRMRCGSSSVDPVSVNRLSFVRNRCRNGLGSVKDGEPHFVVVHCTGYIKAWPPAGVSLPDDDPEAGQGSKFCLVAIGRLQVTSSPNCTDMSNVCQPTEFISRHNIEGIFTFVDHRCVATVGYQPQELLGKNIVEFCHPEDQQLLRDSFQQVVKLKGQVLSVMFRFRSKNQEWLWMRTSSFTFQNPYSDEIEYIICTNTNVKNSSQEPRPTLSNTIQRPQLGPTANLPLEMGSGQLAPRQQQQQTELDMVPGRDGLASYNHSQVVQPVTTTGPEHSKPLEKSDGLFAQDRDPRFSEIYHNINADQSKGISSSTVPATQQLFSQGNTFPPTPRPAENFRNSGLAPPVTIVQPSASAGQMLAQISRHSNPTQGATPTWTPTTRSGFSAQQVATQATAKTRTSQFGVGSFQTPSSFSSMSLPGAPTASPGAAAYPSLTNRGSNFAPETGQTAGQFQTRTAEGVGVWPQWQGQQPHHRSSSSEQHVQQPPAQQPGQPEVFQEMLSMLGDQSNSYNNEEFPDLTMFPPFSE

Structure (SMILES)	pEC50 (AhR)	pIC50 (protein kinase C ζ)	pIC50 (protein kinase C ε)	p27^KIP1 expression in 5L cells [1]	pIC50 (CDK2/cyclin A)	level of tyrosine phosphorylation of both GSK-3 isoforms [2]	pIC50 (CDK4/cyclin D1)	pIC50 (casein kinase 2)	pIC50 (erk1)	pIC50 (cGMP-dependent PK)	pIC50 (protein kinase C γ)	survival of BP8 cells (MTT) [3]	pIC50 (cAMP-dependent PK)	pIC50 (protein kinase C δ)
CC(=O)ON=C1C(=C2C(=O)Nc3cc(Br)ccc32)Nc2ccccc21 [8a, 6-Bromoindirubin-3′-acetoxime]	≤ 7.00	–	–	–	–	–	–	–	–	–	–	–	–	–
O=C1Nc2ccccc2/C1=C1/Nc2ccccc2/C1=N\O [7h, indirubin-3′-oxime]	–	< 4.00	4.70	modest, but detectable increase	6.36	dramatically reduced	5.48	4.92	< 4.00	5.05	5.08	equally sensitive to IO and BIO	5.20	< 4.00
